The results in this text go back to EP4759805A1, “NLRP3 INFLAMMASOME INHIBITOR AND USE THEREOF” (NEUROCRINE BIOSCIENCES, INC., priority 2023, dated 2025).

The IC50 is the concentration that inhibits the measured activity by half. A high value points to a need for much substance.

The target of the assay is T1, NLRP3 inflammasome (Homo sapiens, UniProt Q96P20).
T1 construct: endogenous in cells; host or cells: THP-1 cells (PMA-differentiated, LPS-primed, nigericin-stimulated)
T1 sequence (Q96P20 whole entry): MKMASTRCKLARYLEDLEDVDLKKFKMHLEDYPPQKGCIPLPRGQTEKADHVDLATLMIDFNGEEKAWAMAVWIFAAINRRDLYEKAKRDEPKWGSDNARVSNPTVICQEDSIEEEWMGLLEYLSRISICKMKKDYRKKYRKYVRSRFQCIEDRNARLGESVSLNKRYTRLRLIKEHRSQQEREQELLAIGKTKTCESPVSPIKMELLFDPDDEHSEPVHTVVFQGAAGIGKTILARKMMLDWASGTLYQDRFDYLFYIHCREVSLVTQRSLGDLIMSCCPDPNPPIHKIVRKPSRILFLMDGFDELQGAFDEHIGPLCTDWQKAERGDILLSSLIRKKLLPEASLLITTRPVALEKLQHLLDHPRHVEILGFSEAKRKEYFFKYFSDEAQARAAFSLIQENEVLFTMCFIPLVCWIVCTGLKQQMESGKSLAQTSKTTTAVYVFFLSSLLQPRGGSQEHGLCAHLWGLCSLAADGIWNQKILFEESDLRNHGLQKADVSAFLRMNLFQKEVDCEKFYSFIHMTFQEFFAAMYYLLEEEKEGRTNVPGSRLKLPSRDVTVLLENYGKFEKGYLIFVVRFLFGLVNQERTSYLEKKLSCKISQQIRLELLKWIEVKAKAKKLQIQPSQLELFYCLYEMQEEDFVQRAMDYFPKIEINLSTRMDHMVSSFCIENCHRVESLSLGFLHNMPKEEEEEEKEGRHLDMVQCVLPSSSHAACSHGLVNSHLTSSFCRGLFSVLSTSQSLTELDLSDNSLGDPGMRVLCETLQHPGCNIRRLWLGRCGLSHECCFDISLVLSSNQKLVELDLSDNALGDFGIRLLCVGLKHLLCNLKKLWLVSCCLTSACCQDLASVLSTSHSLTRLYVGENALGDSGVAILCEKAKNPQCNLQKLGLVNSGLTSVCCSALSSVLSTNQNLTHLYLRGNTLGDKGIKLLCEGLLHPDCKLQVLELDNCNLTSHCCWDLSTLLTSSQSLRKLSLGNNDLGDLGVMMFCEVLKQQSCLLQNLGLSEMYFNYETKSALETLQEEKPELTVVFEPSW
Kind of assay: Cell assay of inhibitory activity against NLRP3 inflammasome in THP-1 cells (LPS/nigericin stimulation, caspase-1 glo readout). The note with it: PMA-differentiated THP-1 cells; LPS 500 ng/ml 3 h, compound 1 h, nigericin 10 µg/ml 30 min; active caspase-1 in supernatant. Type of assay: cell-based. On the procedure:
Experimental Example 1: Cell assay of inhibitory activity of the compounds of the present disclosure against NLRP3 inflammasome
Test compounds: the compounds of the present disclosure prepared in accordance with the methods described in the Examples
THP-1 was an immortalized human macrophage cell line.
Test instrument: Microplate reader (manufactured by PE)
• 1. THP-1 cells were cultured in 1640 complete medium (500 ml 1640+56 ml FBS+560 µl 1000× P/S+2 µl mercaptoethanol), and used within 3 to 20 passages. • 2. Coating of culture plates: 100 µl of polylysine solution was added into a 96-well cell culture plate and incubated at 37°C for 30min. The solution was discarded, and the plate was washed twice with PBS for later use. • 3. Induction of differentiation of THP-1: THP-1 cells were resuspended in an appropriate amount of complete medium containing 10 ng/ml PMA to achieve a cell density of 5×10^5 cells /ml in the suspension. The cell suspension was added into a 96-well plate with 100 µl of cell suspension per well, and the 96-well plate was cultured overnight for 16 hours in a 37°C CO2 cell incubator. • 4. Stimulation of THP-1: • a. Serum-free THP-1 culture medium containing LPS was added to achieve a final concentration of 500 ng/ml, and the resultant was cultured in a 37°C CO2 cell incubator for 3h; • b. The compounds to be tested were prepared into stock solutions at gradient concentrations with DMSO. The resulting solutions were added to the cells, evenly mixed, and finally diluted at 1:1000. The 96-well plate was cultured in a 37°C CO2 cell incubator for 1h. • c. Nigericin was added to each well to achieve a final concentration of 10 µg/ml, and the resultant was cultured in a 37°C CO2 cell incubator for 30 min. • d. The resulting culture medium in each well was transferred to a new culture plate, which was then centrifuged at 3000 rpm for 5min. Afterwards, the supernatant was transferred to a new 96-well plate. • e. The collected supernatant samples of the cell culture medium were determined by using a commercial caspase-1 glo kit, and the content of human active caspase-1 was determined according to the manufacturer's instructions.
`C#Cc1ccc(-c2nnc(NC(=O)[C@@H](C)N)cc2C2CCC2)c(O)c1` [Compound 65, (R)-2-amino-N-(5-cyclobutyl-6-(4-ethynyl-2-hydroxyphenyl)pyridazin-3-yl)propanamide] registered an IC50 of 0.0315 µM. This counts as double-digit nanomolar.
As to `C#Cc1ccc(-c2nnc(NC(=O)[C@@H](C)N)cc2C(C)C)c(O)c1` [Compound 66, (R)-2-amino-N-(6-(4-ethynyl-2-hydroxyphenyl)-5-isopropylpyridazin-3-yl)propanamide], the IC50 came to 0.0139 µM.
The figure for `CNCC(=O)Nc1cc(C2CC2)c(-c2ccc(Cl)cc2O)nn1` [Compound 67, N-(6-(4-chloro-2-hydroxyphenyl)-5-cyclopropylpyridazin-3-yl)-2-(methylamino)acetamide] is 0.0056 µM.
